Molecules are shown by their SMILES. Structures can show the parent of a compound that is named as a salt.

The nature of data set [1]: Solubility in aqueous media / water. In kind it is physicochemical.
The next data set in a line: Hygroscopic tendency. It counts as physicochemical.

In the case of `Cc1cn(-c2cc(NC(=O)c3ccc(C)c(Nc4nccc(-c5cccnc5)n4)c3)cc(C(F)(F)F)c2)cn1` [Nilotinib, 4-Methyl-3-[[4-(3-pyridinyl)-2-pyrimidinyl]amino]-N-[5-(4-methyl-1H-imidazol-1-yl) -3-(trifluoromethyl)phenyl] benzamide], in data set [1] (water, background statement), the water solubility entry is “poorly water soluble”.

For `Cc1cn(-c2cc(NC(=O)c3ccc(C)c(Nc4nccc(-c5cccnc5)n4)c3)cc(C(F)(F)F)c2)cn1` [nilotinib hydrochloride monohydrate, 4-Methyl-N-[3-(4-methyl-1H-imidazol-1-yl) -5-(trifluromethyl)phenyl]-3-[(4-pyridine-3-ylpyrimidin-2-yl)amino]benzamide hydrochloride hydrate], the “solubility in aqueous media” value in data set [1] (aqueous media) is listed as “low solubility”. Also, the hygroscopic tendency result in “Hygroscopic tendency” is on record as “slight hygroscopic tendency”.

Source of the values: patent US8293756B2, “Pharmaceutical compositions comprising nilotinib hydrochloride monohydrate” (Novartis AG, priority 2006, dated 2012).
